Assay results published in doi:10.1101/2024.01.18.576231v1 (biorxiv, 2024).

Columns and labels:
Assay type in all cases: binding
[1] = molecular target: T1, CRBN_ΔHBD (Homo sapiens, UniProt Q96SW2, INS193GNGNSG/DEL194-248); assay: fluorescence polarization, displacement of Cy5-thalidomide; details: […] Cy5-thalidomide tracer, pH […]
[2] = molecular target: CRBN:DDB1 complex (Homo sapiens, UniProt Q96SW2); assay: fluorescence polarization, direct titration; details: labelled compound; […] tracer, pH […], RT
[3] = molecular target: T1, CRBN_ΔHBD; assay: fluorescence polarization, direct titration; details: labelled compound; […] tracer, pH […], RT
[4] = molecular target: CRBN_TBD (Homo sapiens, UniProt Q96SW2); assay: fluorescence polarization, direct titration; details: labelled compound; […] tracer, pH […], RT

Compound	EC50 [1]	further results
COc1cccc2c1CN(C1CCC(=O)NC1=O)C2=O (stereo not shown) [Z2508929002]	223 nM	–
O=C1CCC(N2Cc3c(C=C4CCOC4)cccc3C2=O)C(=O)N1 (stereo not shown) [Z4223332422]	193 nM	–
Nc1c(O)ccc2c1C(=O)N(C1CCC(=O)NC1=O)C2=O (stereo not shown) [Z3269026162]	187 nM	–
Cc1nn(CCO)cc1CNc1ccc2c(c1)CN(C1CCC(=O)NC1=O)C2=O (stereo not shown) [Z5000207375]	257 nM	–
NC(=O)N1CCC(C#Cc2cccc3c2CN(C2CCC(=O)NC2=O)C3=O)CC1 (stereo not shown) [Z4999915373]	218 nM	–
COc1nccnc1CNc1ccc2c(c1)CN(C1CCC(=O)NC1=O)C2=O (stereo not shown) [Z5000208878]	197 nM	–
Cy5-conjugated thalidomide	–	Kd [2]: 4.1 nM; Kd [3]: 13 nM; Kd [4]: 5000 nM
COc1cc(N)cnc1-c1ccc2c(c1)CN(C1CCC(=O)NC1=O)C2=O (stereo not shown) [Z5000467358]	151 nM	–
